The values that follow are results of earlier work, collected in publication PMC9826446 (Journal of Bone and Mineral Research, 2022).

In data set [1] the test system is TNAP. The note with it: not TNAP‐specific; ref [15], [16].
In data set [2] the test system is vascular calcification. The settings on record: patients with PXE, phase 2 trial; ref [27].
Data set [3] deals with ectopic calcification. The note with it: animal models of PXE; ref [1], [7], [19].

For the compound `c1ccc([C@H]2CN3CCSC3=N2)cc1` [levamisole], the “inhibition on TNAP” value in data set [1] is “only weak inhibition”.

Take `Cn1c(=O)c2[nH]cnc2n(C)c1=O` [theophylline]: in data set [1], the “inhibition on TNAP” value is recorded as “only weak inhibition”.

Regarding `CC(O)(P(=O)(O)O)P(=O)(O)O` [etidronate], in data set [2], the vascular calcification entry is listed as “may reduce vascular calcification”.

Turning to `COc1ccc(Cl)cc1S(=O)(=O)Nc1cncc(C(N)=O)c1` [SBI‐425, 5‐((5‐chloro‐2‐methoxyphenyl)sulfonamido)nicotinamide], the anticalcification effects result in data set [3] is “significant anticalcification effects”.
